# Where a name gives a salt, the structure may show the parent alone. Read-outs that look alike come from different tables or passages of the source.
# What was measured:
# human AHR = target: T1, human AHR (Homo sapiens, UniProt P35869); assay: Human AHR agonist luciferase assay (CYP1A1 promoter Nano-luc reporter in HepG2 cells);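 note: stably transfected HepG2 clone, DRE-containing 1200 bp promoter region driving Nano-luc, treated 4 to 24 h with 11-point dilutions in tryptophan-free medium, medium-only wells as baseline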
# T1 sequence (P35869 11-848): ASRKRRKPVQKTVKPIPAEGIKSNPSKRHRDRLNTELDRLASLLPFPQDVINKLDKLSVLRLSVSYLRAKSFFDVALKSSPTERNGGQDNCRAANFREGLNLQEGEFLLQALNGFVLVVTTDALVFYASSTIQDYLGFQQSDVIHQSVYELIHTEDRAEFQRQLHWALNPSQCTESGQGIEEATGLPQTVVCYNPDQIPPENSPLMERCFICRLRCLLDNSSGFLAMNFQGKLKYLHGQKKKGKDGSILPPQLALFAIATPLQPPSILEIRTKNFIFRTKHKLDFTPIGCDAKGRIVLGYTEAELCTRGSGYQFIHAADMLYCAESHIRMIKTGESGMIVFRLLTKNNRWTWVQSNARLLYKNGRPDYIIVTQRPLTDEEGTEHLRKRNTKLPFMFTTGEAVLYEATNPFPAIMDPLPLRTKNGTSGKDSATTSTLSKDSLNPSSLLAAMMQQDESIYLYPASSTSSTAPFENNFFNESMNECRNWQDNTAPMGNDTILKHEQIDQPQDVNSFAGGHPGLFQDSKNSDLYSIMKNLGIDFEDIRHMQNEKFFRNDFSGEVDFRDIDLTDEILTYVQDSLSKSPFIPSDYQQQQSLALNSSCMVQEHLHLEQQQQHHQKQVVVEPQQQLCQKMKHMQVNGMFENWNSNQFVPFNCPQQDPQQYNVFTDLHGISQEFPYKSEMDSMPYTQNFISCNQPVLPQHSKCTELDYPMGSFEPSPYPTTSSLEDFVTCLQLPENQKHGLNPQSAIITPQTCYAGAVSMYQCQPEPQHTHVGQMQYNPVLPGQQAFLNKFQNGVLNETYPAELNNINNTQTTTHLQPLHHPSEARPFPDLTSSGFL
# Method: To detect AHR activation, a reporter gene plasmid was constructed by placing the gene sequence from −1200 bp to 0 bp upstream of CYP1A1 in front of a Nano-luc luciferase reporter gene according to conventional construction methods of reporter gene plasmids in the art. The reporter gene plasmid was transfected into human hepatoma HepG2 cells by a conventional liposome transfection method in the art, and stably expressing cells were selected by puromycin. The selected cells were diluted to a concentration of 5 cells/mL and seeded into a 96-well plate at 100 μL/well, and single clones were obtained after growth. A single clone with normal morphology, normal growth, and the highest induction signal was selected for the human AHR agonist luciferase assay.
# On day one, the HepG2 monoclonal cell line stably expressing reporter gene was counted and seeded into a white opaque 96-well plate at a density of 1×10^4 cells per well −8×10^4 cells per well using 100 μL of complete medium without tryptophan and phenol red (minimal essential medium (MEM) without tryptophan and phenol red, 10% (v/v) fetal bovine serum, 1× non-essential amino acids, 1× sodium pyruvate, and 1× GlutaMax). The cells were cultured in an incubator maintained at 37° C. with 5% (v/v) CO2 for 24 hours.
# Test compounds were prepared as 10 mmol/L stock solutions in dimethyl sulfoxide (DMSO) and stored at 4° C. protected from light. Before treatment, the compound stock solutions, positive control compounds (e.g., dioxin, 2-(1H-indole-3-carbonyl)thiazole-4-carboxylic acid methyl ester (ITE), or kynurenine), and a negative control compound (DMSO) were subjected to preliminary dilution (determined based on pre-experiments) with the complete medium without tryptophan and phenol red, followed by 3- to 20-fold serial dilutions to 11 concentration points to obtain 2× dilution solutions. When treating the cells, 50 μL of medium was first aspirated from the 96-well plate containing the seeded cells, and then 50 μL of the serially diluted 2× dilution solution was added. Each compound was tested in duplicate, and each duplicate experiment included a well with a concentration of 0 (i.e., containing only the medium) to determine the baseline. The reporter cells were returned to the incubator and incubated for 4 to 24 hours after treatment.
# After treatment, 100 μL/well of Nano-Glo Luciferase Assay Reagent was added to the 96-well plate, and the relative light unit (RLU) of each well was measured. The RLU values for the wells with the concentration of 0 on the 96-well plates were averaged to calculate the baseline Ave RLU^Vehicle. The activity of AHR induced by the test compounds at different concentrations was calculated according to Formula (1) based on the ratio of RLU^Test Cmpd from the experimental groups to the baseline Ave RLU^Vehicle, to determine the activation fold.
# The activation fold and the corresponding compound concentration were fitted using GraphPad Prism 9 with [Agonist] vs. response—variable slope (four parameters) to calculate the EC50 of the compound for AHR activation.
# mouse AHR = mouse AHR (Mus musculus, UniProt P30561); assay: Mouse AHR agonist luciferase assay (6x XRE Nano-luc reporter in Hepa1-6 cells);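 note: stable Hepa1-6 reporter line, 4–24 h exposure, 11-point serial dilution, Nano-Glo luminescence as fold over medium-only baseline, EC50 from four-parameter fit of activation fold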
# Method: The reporter gene plasmid was transfected into mouse hepatoma Hepa1-6 cells by a conventional liposome transfection method in the art, and stably expressing cells were selected by puromycin for the mouse AHR agonist luciferase assay.
# On day one, the stably expressing reporter gene Hepa1-6 cell line was counted and seeded into a white opaque 96-well plate at a density of 1×10^4 cells per well −8×10^4 cells per well using 100 μL of phenol red-free Dulbecco's Modified Eagle Medium (DMEM) (DMEM without phenol red, 10% fetal bovine serum). The cells were cultured in an incubator maintained at 37° C. with 5% CO2 for 24 hours.
# Test compounds were prepared as 10 mM stock solutions in DMSO and stored at 4° C. protected from light. Before treatment, the compound stock solutions, positive control compounds (e.g., dioxin, ITE, or kynurenine), and a negative control compound (DMSO) were subjected to preliminary dilution (determined based on pre-experiments) with complete medium without tryptophan and phenol red, followed by 3- to 20-fold serial dilutions to 11 concentration points to obtain 10× dilution solutions. When treating the cells, 10 μL of medium was first aspirated from the 96-well plate containing the seeded cells, and then 10 μL of the serially diluted 10× dilution solution was added. Each compound was tested in duplicate, and each duplicate experiment included a well with a concentration of 0 (i.e., containing only medium) to determine the baseline. The reporter cells were returned to the incubator and incubated for 4 to 24 hours after treatment.
# After treatment, 100 μL/well of Nano-Glo Luciferase Assay Reagent was added to the 96-well plate, and the RLU of each well was measured. The RLU values for the wells with the concentration of 0 on the 96-well plates were averaged to calculate the baseline Ave RLU^Vehicle The activity of AHR induced by the test compounds at different concentrations was calculated according to Formula (1) based on the ratio of RLU^Test Cmpd from the experimental groups to the baseline Ave RLU^Vehicle, to determine the activation fold.
# The activation fold and the corresponding compound concentration were fitted using GraphPad Prism 9 with [Agonist] vs. response—variable slope (four parameters) to determine the EC50 of the compound for AHR activation.
# rat AHR = target: T2, rat AHR (Rattus norvegicus, UniProt P41738); assay: Rat AHR agonist luciferase assay (6x XRE Nano-luc reporter in H-4-II-E cells); assay type: cell-based; conditions: AHR activation, rat hepatoma H-4-II-E reporter cells, incubated 4 to 24 hours; read-out: H4IIE EC50
# T2 construct: The reporter gene was introduced into a genome of rat hepatoma H-4-II-E cells via lentiviral infection; endogenous in cells; host or cells: H-4-II-E (rat hepatoma) with a lentivirally integrated 6x XRE Nano-luc reporter
# T2 sequence (P41738 10-853): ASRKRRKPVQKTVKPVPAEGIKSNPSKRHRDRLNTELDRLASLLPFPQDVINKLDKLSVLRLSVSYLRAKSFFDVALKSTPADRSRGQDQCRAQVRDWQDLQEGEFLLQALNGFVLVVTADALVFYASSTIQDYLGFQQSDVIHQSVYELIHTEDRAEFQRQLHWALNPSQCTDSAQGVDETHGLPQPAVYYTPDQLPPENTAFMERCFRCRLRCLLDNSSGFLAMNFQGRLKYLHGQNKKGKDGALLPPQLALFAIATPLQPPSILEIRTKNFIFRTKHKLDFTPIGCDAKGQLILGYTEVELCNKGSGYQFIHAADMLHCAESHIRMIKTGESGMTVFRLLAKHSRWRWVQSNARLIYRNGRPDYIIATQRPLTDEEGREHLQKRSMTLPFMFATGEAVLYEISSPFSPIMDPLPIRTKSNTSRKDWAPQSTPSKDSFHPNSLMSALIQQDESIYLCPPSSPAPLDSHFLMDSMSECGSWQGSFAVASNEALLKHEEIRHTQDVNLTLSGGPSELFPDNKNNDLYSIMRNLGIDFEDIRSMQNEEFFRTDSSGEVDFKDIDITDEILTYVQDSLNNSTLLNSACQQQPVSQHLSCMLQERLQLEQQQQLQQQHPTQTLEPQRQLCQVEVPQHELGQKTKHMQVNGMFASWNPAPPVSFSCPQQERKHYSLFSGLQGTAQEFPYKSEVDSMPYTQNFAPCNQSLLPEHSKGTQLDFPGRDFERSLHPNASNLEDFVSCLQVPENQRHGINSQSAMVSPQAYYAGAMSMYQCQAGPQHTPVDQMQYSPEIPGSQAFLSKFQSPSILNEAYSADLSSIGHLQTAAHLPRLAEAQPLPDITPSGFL
# From the text: A lentivirus containing the reporter gene was generated by co-transfecting the transfer plasmid with packaging plasmids into 293T cells using conventional transfection methods in the art, followed by purification. The reporter gene was introduced into a genome of rat hepatoma H-4-II-E cells via lentiviral infection, and cells stably expressing the reporter gene were selected with puromycin for the rat AHR agonist luciferase assay.
# [1] = read-out: HepG2 EC50, AHR activation, human hepatoma HepG2 reporter cells, incubated 4 to 24 hours
# mouse AHR, sequence (P30561 10-805 limits assumed): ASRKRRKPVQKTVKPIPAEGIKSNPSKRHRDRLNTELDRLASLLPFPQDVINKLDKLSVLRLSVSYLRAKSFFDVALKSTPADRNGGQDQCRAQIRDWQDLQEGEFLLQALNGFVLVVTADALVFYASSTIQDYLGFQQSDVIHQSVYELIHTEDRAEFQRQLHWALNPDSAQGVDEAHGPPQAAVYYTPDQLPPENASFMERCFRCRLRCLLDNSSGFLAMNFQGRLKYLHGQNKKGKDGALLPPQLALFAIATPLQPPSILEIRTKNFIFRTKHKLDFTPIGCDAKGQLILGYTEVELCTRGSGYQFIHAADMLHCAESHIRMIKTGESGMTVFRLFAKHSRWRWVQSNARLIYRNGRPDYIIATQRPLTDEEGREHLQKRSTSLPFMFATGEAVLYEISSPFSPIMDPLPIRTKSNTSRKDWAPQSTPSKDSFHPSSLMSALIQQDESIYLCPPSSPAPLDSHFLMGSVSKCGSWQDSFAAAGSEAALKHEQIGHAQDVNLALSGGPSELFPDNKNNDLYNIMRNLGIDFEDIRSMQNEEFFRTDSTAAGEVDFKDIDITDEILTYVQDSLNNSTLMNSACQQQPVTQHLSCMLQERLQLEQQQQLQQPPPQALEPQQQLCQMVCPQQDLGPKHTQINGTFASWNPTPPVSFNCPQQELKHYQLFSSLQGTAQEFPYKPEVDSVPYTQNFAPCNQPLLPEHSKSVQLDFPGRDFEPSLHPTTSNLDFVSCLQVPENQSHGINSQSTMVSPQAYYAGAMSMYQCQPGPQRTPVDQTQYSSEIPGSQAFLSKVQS
# mouse AHR, sequence (P53762 whole entry partner): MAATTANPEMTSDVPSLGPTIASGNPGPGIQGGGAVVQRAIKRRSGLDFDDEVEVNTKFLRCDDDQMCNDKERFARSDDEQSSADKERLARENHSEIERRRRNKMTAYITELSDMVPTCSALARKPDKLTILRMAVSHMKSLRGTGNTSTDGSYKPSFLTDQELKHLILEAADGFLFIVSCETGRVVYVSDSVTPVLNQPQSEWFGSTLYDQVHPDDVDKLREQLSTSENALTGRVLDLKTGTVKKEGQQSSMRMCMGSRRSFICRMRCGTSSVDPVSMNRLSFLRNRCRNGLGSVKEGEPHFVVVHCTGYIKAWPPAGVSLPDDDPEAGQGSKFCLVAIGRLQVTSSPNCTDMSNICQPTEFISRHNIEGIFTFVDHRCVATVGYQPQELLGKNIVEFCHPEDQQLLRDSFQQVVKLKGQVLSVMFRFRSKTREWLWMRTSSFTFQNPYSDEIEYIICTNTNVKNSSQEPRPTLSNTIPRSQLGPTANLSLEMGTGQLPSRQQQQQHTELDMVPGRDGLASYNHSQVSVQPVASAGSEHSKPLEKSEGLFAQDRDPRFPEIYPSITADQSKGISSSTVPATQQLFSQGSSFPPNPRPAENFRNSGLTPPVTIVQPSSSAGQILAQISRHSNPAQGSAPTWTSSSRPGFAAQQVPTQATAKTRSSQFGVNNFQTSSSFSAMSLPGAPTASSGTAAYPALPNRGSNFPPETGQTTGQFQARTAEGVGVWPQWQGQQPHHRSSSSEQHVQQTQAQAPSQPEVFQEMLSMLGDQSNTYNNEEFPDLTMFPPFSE
SMILES,EC50 (human AHR) [nM],EC50 (mouse AHR) [nM],EC50 (rat AHR) [nM],EC50 (human AHR; [1]) [nM],"EC50 (mouse AHR; read-out: Hepa 1-6 EC50, AHR activation, mouse hepatoma Hepa1-6 reporter cells, incubated 4 to 24 hours) [nM]"
"CC(C)[C@H](N)C(=O)n1cc(C(=O)c2nc(C3CCOC3=O)cs2)c2ccccc21 (stereo partly drawn) [Compound 9, 3-[2-({1-[(2S)-2-amino-3-methylbutanoyl]indol-3-yl}carbonyl)-1,3-thiazol-4-yl]tetrahydrofuran-2-one hydrochloride]",500 to 2000,100 to 2000,,,
COc1ccc2c(C(=O)c3nc(C4(O)CCOC4=O)cs3)c[nH]c2c1 (centres unmarked) [Compound 2-3],< 500,< 100,≤ 10,,
COc1ccc2[nH]cc(C(=O)c3nc(C4(F)CCOC4=O)cs3)c2c1 (centres unmarked) [Compound 3-5],500 to 2000,,,,
COc1ccc2[nH]cc(C(=O)c3nc(C4CCOC4=O)cs3)c2c1 (centres unmarked) [Compound 1-5],< 500,< 100,≤ 10,,
"COCCOCCOCCOCC(=O)n1cc(C(=O)c2nc(C3CCOC3=O)cs2)c2ccccc21 (centres unmarked) [Compound 15, 3-{2-[1-(3,6,9,12-tetraoxatridecanoyl)-1H-indole-3-carbonyl]thiazol-4-yl}dihydrofuran-2(3H)-one]",500 to 2000,100 to 2000,,,
COc1ccc2c(C(=O)c3nc(C4CCOC4=O)cs3)c[nH]c2c1 (centres unmarked) [Compound 1-3],< 500,< 100,≤ 10,,
COc1ccc2c(C(=O)c3nc(C4(Cl)CCOC4=O)cs3)c[nH]c2c1 (centres unmarked) [Compound 4-3],< 500,,,,
CC1CC(c2csc(C(=O)c3c[nH]c4ccc(F)cc34)n2)C(=O)O1 (centres unmarked) [Compound 8-4],< 500,< 100,,,
"O=C(c1nc(C2CCOC2=O)cs1)c1cn(COP(=O)(O)O)c2ccccc12 (centres unmarked) [Compound 12, {3-[4-(2-oxotetrahydrofuran-3-yl)thiazole-2-carbonyl]-1H-indol-1-yl}methylphosphoric acid]",500 to 2000,100 to 2000,,,
"O=C(c1nc(C2CCOC2=O)cs1)c1c[nH]c2ccccc12 (single isomer, unassigned) [Compound 1-isomer-A]",< 500,< 100,≤ 10,,
O=C(c1nc(C2(O)CCOC2=O)cs1)c1c[nH]c2cc(F)ccc12 (centres unmarked) [Compound 2-2],< 500,< 100,≤ 10,,
"CC(C)[C@H](N)C(=O)OCn1cc(C(=O)c2nc(C3CCOC3=O)cs2)c2ccccc21 (some centres unmarked) [Compound 13, hydrochloride]",500 to 2000,100 to 2000,,,
O=C(c1nc(C2(Cl)CCOC2=O)cs1)c1c[nH]c2ccccc12 (centres unmarked) [Compound 4],< 500,< 100,≤ 10,,
CN1CCC(c2csc(C(=O)c3c[nH]c4cc5c(cc34)OCO5)n2)C1=O (centres unmarked) [Compound 7-6],< 500,< 100,2000 to 100000,,
C[C@@H]1C[C@H](c2csc(C(=O)c3c[nH]c4ccccc34)n2)C(=O)O1 [Compound 8-cis-1],,,,< 500,
Cc1ccc2c(C(=O)c3nc(C4CCOC4=O)cs3)c[nH]c2c1 (centres unmarked) [Compound 1-8],< 500,,,,
O=C1OCC=C1c1csc(C(=O)c2c[nH]c3ccccc23)n1 [Compound 5],< 500,< 100,,,
COc1ccc2[nH]cc(C(=O)c3nc(C4(O)CCOC4=O)cs3)c2c1 (centres unmarked) [Compound 2-5],< 500,< 100,,,
C[C@H]1C[C@H](c2csc(C(=O)c3c[nH]c4ccccc34)n2)C(=O)O1 [Compound 8-trans-2],,,,< 500,
"COCCOCCOCCOCC(=O)OCn1cc(C(=O)c2nc(C3CCOC3=O)cs2)c2ccccc21 (centres unmarked) [Compound 14, 3,6,9,12-tetraoxatridecanoic acid {3-[4-(2-oxotetrahydrofuran-3-yl)thiazole-2-carbonyl]-1H-indol-1-yl}methyl ester]",500 to 2000,100 to 2000,,,
C[C@@H]1C[C@@H](c2csc(C(=O)c3c[nH]c4ccccc34)n2)C(=O)O1 [Compound 8-trans-1],,,,< 500,

SMILES,EC50 (human AHR) [nM],EC50 (mouse AHR) [nM],EC50 (rat AHR) [nM],EC50 (human AHR; [1]) [nM],"EC50 (mouse AHR; read-out: Hepa 1-6 EC50, AHR activation, mouse hepatoma Hepa1-6 reporter cells, incubated 4 to 24 hours) [nM]"
O=C(c1nc(C2(Cl)CCOC2=O)cs1)c1c[nH]c2ccc(F)cc12 (centres unmarked) [Compound 4-4],< 500,,,,
COc1ccc2c(C(=O)c3nc(C4(F)CCOC4=O)cs3)c[nH]c2c1 (centres unmarked) [Compound 3-3],< 500,< 100,,,
CC1CC(c2csc(C(=O)c3c[nH]c4cc5c(cc34)OCO5)n2)C(=O)O1 (centres unmarked) [Compound 8-6],< 500,< 100,,,
COc1ccc2[nH]cc(C(=O)c3nc(C4CC(C)OC4=O)cs3)c2c1 (centres unmarked) [Compound 8-5],< 500,< 100,,,
"O=C(c1nc(C2CCOC2=O)cs1)c1c[nH]c2ccccc12 (single isomer, unassigned) [Compound 1-isomer-B]",,,≤ 10,,< 100
CN1CCC(c2csc(C(=O)c3c[nH]c4ccc(F)cc34)n2)C1=O (centres unmarked) [Compound 7-4],< 500,,2000 to 100000,,
O=C(c1nc(C2(O)CCOC2=O)cs1)c1c[nH]c2ccc(F)cc12 (centres unmarked) [Compound 2-4],< 500,< 100,,,
O=C(c1nc(C2(F)CCOC2=O)cs1)c1c[nH]c2cc(F)ccc12 (centres unmarked) [Compound 3-2],< 500,< 100,,,
O=C(c1nc(C2CCOC2=O)cs1)c1cn(P(=O)(O)O)c2ccccc12 (centres unmarked) [Compound 11],500 to 2000,100 to 2000,,,
CN1CCC(c2csc(C(=O)c3c[nH]c4cc(F)ccc34)n2)C1=O (centres unmarked) [Compound 7-2],< 500,,2000 to 100000,,
O=C(c1nc(C2(F)CCOC2=O)cs1)c1c[nH]c2ccc(F)cc12 (centres unmarked) [Compound 3-4],< 500,100 to 2000,,,
COc1ccc2c(C(=O)c3nc(C4CC(C)OC4=O)cs3)c[nH]c2c1 (centres unmarked) [Compound 8-3],< 500,< 100,,,
C[C@H]1C[C@@H](c2csc(C(=O)c3c[nH]c4ccccc34)n2)C(=O)O1 [Compound 8-cis-2],,,,< 500,
N#Cc1ccc2c(C(=O)c3nc(C4CCOC4=O)cs3)c[nH]c2c1 (centres unmarked) [Compound 1-9],< 500,,,,
O=C(c1nc(C2(F)CCOC2=O)cs1)c1c[nH]c2ccccc12 (centres unmarked) [Compound 3],< 500,< 100,,,
O=C1OCC(O)=C1c1csc(C(=O)c2c[nH]c3ccccc23)n1 [Compound 6],500 to 2000,,,,
COc1ccc2c(C(=O)c3nc(C4CCN(C)C4=O)cs3)c[nH]c2c1 (centres unmarked) [Compound 7-3],< 500,,2000 to 100000,,
CC1CC(c2csc(C(=O)c3c[nH]c4cc(F)ccc34)n2)C(=O)O1 (centres unmarked) [Compound 8-2],< 500,< 100,,,
CN1CCC(c2csc(C(=O)c3c[nH]c4ccccc34)n2)C1=O (centres unmarked) [Compound 7],< 500,,2000 to 100000,,
"O=C(c1nc(C2CCOC2=O)cs1)c1cn(CO)c2ccccc12 (centres unmarked) [Compound 10, 3-{2-[1-(hydroxymethyl)indole-3-carbonyl]thiazol-4-yl}tetrahydrofuran-2-one]",500 to 2000,100 to 2000,,,
O=C(c1nc(C2CCOC2=O)cs1)c1c[nH]c2cc(Cl)ccc12 (centres unmarked) [Compound 1-7],< 500,,,,

# Source: US20260226041A1 (ARIGENX THERAPEUTICS CO., LTD., priority 2023, published 2026)
